According to the supplement of paper PMC10307832:

Compound: O=C(O)C(Cc1ccccc1[N+](=O)[O-])=NNc1nc(-c2ccc(Cl)c(Cl)c2)cs1 (mixture of isomers) [4EGI-1] + CC(=O)c1c(C)c2cnc(Nc3ccc(N4CCNCC4)cn3)nc2n(C2CCCC2)c1=O [Palbociclib] (partner 0.5 µM)
Test: relative viability (nuclei count vs DMSO), 5 days (fraction); higher = more cells survive
Details: first compound 0.5 µM
Summary of the method: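 Relative viability is defined as nuclei in treated wells over nuclei in vehicle wells. Duplicate plates were run and medians reported. Lung cancer cell lines in 1536-well plates were dosed by pin tool one day after seeding, with one drug or with a fixed anchor-drug dose plus five library-drug doses (not always all listed) in √10 steps, and nuclei were counted after 5 days.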

Point of comparison: NCI-H1395, relative viability 0.697. Against it:
- NCI-H322M — lower, 0.461
- NCI-H358 — lower, 0.12
- NCI-H441 — lower, 0.283
- NCI-H460 — lower, 0.169
- NCI-H520 — lower, 0.27
- NCI-H522 — higher, 1.07
- NCI-H647 — lower, 0.53
- NCI-H650 — lower, 0.319
- NCI-H661 — lower, 0.454
- NCI-H727 — lower, 0.689
- NCI-H838 — lower, 0.237
- NCI-H1355 — lower, 0.415
- NCI-H1437 — lower, 0.368
- NCI-H1648 — lower, 0.271
- NCI-H1650 — lower, 0.417
- NCI-H1651 — lower, 0.559
- NCI-H1666 — lower, 0.673
- NCI-H1734 — lower, 0.395
- NCI-H1755 — lower, 0.439
- NCI-H1793 — lower, 0.339
- NCI-H1915 — lower, 0.562
- NCI-H1944 — lower, 0.404
- NCI-H1975 — higher, 0.725
- NCI-H1993 — higher, 0.727
- NCI-H2009 — lower, 0.251
- NCI-H2023 — lower, 0.358
- NCI-H2085 — lower, 0.518
- NCI-H2087 — lower, 0.281
- NCI-H2126 — lower, 0.324
- NCI-H2170 — lower, 0.423
- NCI-H2228 — higher, 1.22
- NCI-H2342 — lower, 0.506
- NCI-H2347 — lower, 0.427
- NCI-H2405 — lower, 0.606
- NCI-H3122 — lower, 0.191
- PC-3 [JPC-3] — lower, 0.472
- PC-14 — lower, 0.559
- RERF-LC-KJ — higher, 1.09
- SK-LU-1 — lower, 0.439
- SK-MES-1 — lower, 0.354
- SW 900 — lower, 0.552
- SW 1573 — lower, 0.417
- UMC-11 — lower, 0.345

Same assay, conditions: first compound 1.581 µM

Point of comparison: NCI-H727, relative viability 0.617. Against it:
- NCI-H358 — lower, 0.153
- NCI-H441 — lower, 0.2
- NCI-H460 — lower, 0.05
- NCI-H520 — lower, 0.225
- NCI-H522 — higher, 0.822
- NCI-H647 — lower, 0.302
- NCI-H661 — lower, 0.413
- NCI-H838 — lower, 0.223
- NCI-H1355 — lower, 0.396
- NCI-H1437 — lower, 0.308
- NCI-H1648 — lower, 0.232
- NCI-H1651 — lower, 0.478
- NCI-H1666 — higher, 0.693
- NCI-H1734 — lower, 0.281
- NCI-H1755 — lower, 0.424
- NCI-H1793 — lower, 0.333
- NCI-H1915 — lower, 0.369
- NCI-H1975 — lower, 0.565
- NCI-H1993 — higher, 0.624
- NCI-H2009 — lower, 0.243
- NCI-H2085 — lower, 0.462
- NCI-H2087 — lower, 0.243
- NCI-H2126 — lower, 0.371
- NCI-H2170 — lower, 0.363
- NCI-H2228 — higher, 0.708
- NCI-H2342 — lower, 0.547
- NCI-H2347 — lower, 0.405
- NCI-H3122 — lower, 0.158
- RERF-LC-KJ — lower, 0.481
- SK-LU-1 — lower, 0.44
- SK-MES-1 — lower, 0.27
- SW 900 — lower, 0.573
- SW 1573 — lower, 0.354
- UMC-11 — lower, 0.34

Same assay, conditions: first compound 5 µM

Point of comparison: RERF-LC-KJ, relative viability 0.953. Against it:
- NCI-H322M — lower, 0.516
- NCI-H358 — lower, 0.152
- NCI-H441 — lower, 0.23
- NCI-H460 — lower, 0.245
- NCI-H520 — lower, 0.266
- NCI-H522 — higher, 1.2
- NCI-H647 — lower, 0.455
- NCI-H650 — lower, 0.295
- NCI-H661 — lower, 0.385
- NCI-H727 — lower, 0.641
- NCI-H838 — lower, 0.228
- NCI-H1355 — lower, 0.406
- NCI-H1395 — lower, 0.634
- NCI-H1437 — lower, 0.335
- NCI-H1648 — lower, 0.314
- NCI-H1650 — lower, 0.331
- NCI-H1651 — lower, 0.493
- NCI-H1666 — lower, 0.633
- NCI-H1734 — lower, 0.373
- NCI-H1755 — lower, 0.425
- NCI-H1793 — lower, 0.329
- NCI-H1915 — lower, 0.517
- NCI-H1944 — lower, 0.33
- NCI-H1975 — lower, 0.527
- NCI-H1993 — lower, 0.584
- NCI-H2009 — lower, 0.224
- NCI-H2023 — lower, 0.483
- NCI-H2085 — lower, 0.453
- NCI-H2087 — lower, 0.244
- NCI-H2126 — lower, 0.326
- NCI-H2170 — lower, 0.382
- NCI-H2228 — lower, 0.785
- NCI-H2342 — lower, 0.582
- NCI-H2347 — lower, 0.447
- NCI-H2405 — lower, 0.508
- NCI-H3122 — lower, 0.152
- PC-3 [JPC-3] — lower, 0.573
- PC-14 — lower, 0.659
- SK-LU-1 — lower, 0.414
- SK-MES-1 — lower, 0.336
- SW 900 — lower, 0.69
- SW 1573 — lower, 0.47
- UMC-11 — lower, 0.378

Same assay, conditions: first compound 15.81 µM

Point of comparison: NCI-H838, relative viability 0.2. Against it:
- NCI-H322M — higher, 0.46
- NCI-H358 — lower, 0.153
- NCI-H441 — lower, 0.185
- NCI-H460 — lower, 0.141
- NCI-H520 — higher, 0.223
- NCI-H522 — higher, 1.08
- NCI-H647 — higher, 0.303
- NCI-H650 — higher, 0.319
- NCI-H661 — higher, 0.31
- NCI-H727 — higher, 0.604
- NCI-H1355 — higher, 0.337
- NCI-H1395 — higher, 0.594
- NCI-H1437 — higher, 0.279
- NCI-H1648 — higher, 0.275
- NCI-H1650 — higher, 0.255
- NCI-H1651 — higher, 0.534
- NCI-H1666 — higher, 0.641
- NCI-H1734 — higher, 0.38
- NCI-H1755 — higher, 0.435
- NCI-H1793 — higher, 0.235
- NCI-H1915 — higher, 0.477
- NCI-H1944 — higher, 0.273
- NCI-H1975 — higher, 0.665
- NCI-H1993 — higher, 0.52
- NCI-H2009 — lower, 0.196
- NCI-H2023 — higher, 0.245
- NCI-H2085 — higher, 0.474
- NCI-H2087 — lower, 0.163
- NCI-H2126 — higher, 0.343
- NCI-H2170 — higher, 0.392
- NCI-H2228 — higher, 0.787
- NCI-H2342 — higher, 0.59
- NCI-H2347 — higher, 0.413
- NCI-H2405 — higher, 0.55
- NCI-H3122 — higher, 0.227
- PC-3 [JPC-3] — higher, 0.472
- PC-14 — lower, 0.188
- RERF-LC-KJ — higher, 0.882
- SK-LU-1 — higher, 0.386
- SK-MES-1 — higher, 0.288
- SW 900 — higher, 0.395
- SW 1573 — higher, 0.257
- UMC-11 — higher, 0.365

Same assay, conditions: first compound 50 µM

Point of comparison: NCI-H1734, relative viability 0.246. Against it:
- NCI-H322M — higher, 0.453
- NCI-H358 — lower, 0.12
- NCI-H441 — lower, 0.146
- NCI-H460 — lower, 0.0263
- NCI-H520 — lower, 0.105
- NCI-H522 — higher, 0.953
- NCI-H647 — lower, 0.0557
- NCI-H650 — higher, 0.33
- NCI-H661 — higher, 0.284
- NCI-H727 — higher, 0.62
- NCI-H838 — lower, 0.119
- NCI-H1355 — higher, 0.316
- NCI-H1395 — higher, 0.485
- NCI-H1437 — lower, 0.168
- NCI-H1648 — higher, 0.253
- NCI-H1650 — lower, 0.141
- NCI-H1651 — higher, 0.509
- NCI-H1666 — higher, 0.598
- NCI-H1755 — higher, 0.406
- NCI-H1793 — lower, 0.205
- NCI-H1915 — higher, 0.404
- NCI-H1944 — higher, 0.252
- NCI-H1975 — higher, 0.41
- NCI-H1993 — higher, 0.366
- NCI-H2009 — lower, 0.149
- NCI-H2023 — lower, 0.0543
- NCI-H2085 — higher, 0.339
- NCI-H2087 — lower, 0.16
- NCI-H2126 — higher, 0.339
- NCI-H2170 — higher, 0.273
- NCI-H2228 — higher, 0.314
- NCI-H2342 — higher, 0.539
- NCI-H2347 — higher, 0.34
- NCI-H2405 — higher, 0.329
- NCI-H3122 — lower, 0.199
- PC-3 [JPC-3] — higher, 0.458
- PC-14 — lower, 0.0675
- RERF-LC-KJ — higher, 0.625
- SK-LU-1 — higher, 0.289
- SK-MES-1 — lower, 0.18
- SW 900 — lower, 0.234
- SW 1573 — lower, 0.119
